Legend:
Set-up in all cases: species or system rabbit
[1] = In vivo clearance of intravitreally injected ICG from the vitreous (fundus imaging)
Text: (§1) A total of 24 New Zealand White rabbits (age 3-6 months; weight 2.45-3.15 kg; both genders) were used. The rabbits were randomly divided into 7 groups: a control group A treated with laser only (n=3), group B received an intravitreal (IVIT) injection of ICG (n=9), group C received an IVIT injection of ICG labeled collagen fibers (n=3), group D was IVIT injected with collagen fibers followed by an IVIT injection of ICG (n=3), group E was IVIT injected with HA-AuNPs labeled floaters (n=3), and group F was IVIT injected with floaters followed by an IVIT injection of HA-AuNPs (n=3). During the in vivo experiments, animal conditions such as mucous membrane color, heart rate, body heat, and respiratory rate were monitored every 15 minutes. The animals were anesthetized by intramuscular injection of ketamine (40 mg/kg) and xylazine (5 mg/kg). A drop of tropicamide (1%) and phenylephrine hydrochloride (2.5%) was applied into the rabbit eyes to dilate their pupils at 15 min before the imaging procedures. For topical anaesthesia, a drop of topical tetracaine (0.5%) was used. To avoid corneal dehydration during the experiment, a lubricant solution (Systane, Alcon Inc., TX, USA) was added into the eye every minute using a syringe with plastic needle. To maintain the anaesthesia, a dose of ketamine (13 mg/kg) was injected every 45 min. The animal's body heat was maintained using a circulation heat blanket.
First, to visualize the retina of the rabbit eyes, a plastic contact lens was placed on the cornea. When the target location in the vitreous was selected under the microscope, the rabbits under anaesthesia were subsequently intravitreally injected. The intravitreal injections were performed using a 27 gauge needle. In one series of experiments 40 μL of ICG-fibers (which are collagen fibers treated with ICG) was injected; the concentration of collagen in the dispersions was 0.02 mg/mL. In another series of experiments, 40 μL of collagen fibers (0.02 mg/mL) were intravitreally injected. 5 days after the injection of the fibers, ICG (0.25-1.25 mg/ml) was injected in the vitreous (40 μl). The position of the fibers was monitored by OCT so that the intravitreal injection of ICG could be performed close the area where the fibers were located. Three days after the injection of ICG, laser treatment was performed.
The rabbits were monitored one minute after intravitreal injection of the collagen fibers and at day 4 post intravitreal injection of ICG. Rabbits intravitreally injected with ICG only were followed up for 14 days post injection. The rabbit eyes were assessed by color fundus photography, fluorescence imaging, optical coherence tomography (OCT) and photoacoustic microscopy (PAM), as discussed below. The rabbit's head and body were positioned in two different platforms to minimize breathing and other motion artifacts. The same scanning areas for PAM- and OCT-imaging were monitored by the fundus camera which was integrated in the OCT system. To detect the photoacoustic signal, the ultrasound transducer was placed in contact with the conjunctiva, allowing it to move freely in 3D while not applying any physical pressure on the rabbit eyes. […]
Color fundus photography was performed using a 50-degree color fundus photography system (Topcon 50EX, Topcon Corporation, Tokyo, Japan). […] Fluorescence imaging was done with the Topcon 50EX system using appropriate excitation and emission filters.

[2] = In vivo safety evaluation of treated eyes
Text: Before laser treatment, the rabbit's eyes were imaged by PAM and OCT (see section above). For laser treatment, anesthetized rabbits were kept on a custom-built stabilization platform. After acquiring the images and locating the opacities (collagen fibers) by OCT, areas in the eyes (4.5×4.5 mm^2) were illuminated with laser pulses (<7 ns; 1.9 J/cm^2) NT-242, Ekspla, Lithuania) of 800 nm (ICG) to destroy the collagen fibers; the step size of the scanning laser was 9 μm, the beam size equaled 20 μm. During the treatment, real-time OCT was active to monitor the position of the collagen fibers. The 4.5×4.5 mm^2 area was laser scanned several times (3-7 times) until the collagen fibers were completely destroyed. After the laser treatment, PAM and fundus images were performed to evaluate the potential damage of retinal vessels. Also, rabbit's vital signs were monitored and recorded until the animals fully recovered from anaesthesia.
Treated eyes were ophthalmologically evaluated immediately after the laser treatment and followed up for 1 month. Anterior segment structures such as the eyelids, iris, conjunctiva, cornea, anterior chamber and lens were comprehensively examined using slit lamp bio-microscopy (SL120, Carl Zeiss, Germany). In addition, posterior segment structures (i.e., the vitreous, optic nerve and retina) were assessed using a contact fundus lens (Volk Optical Inc, Mentor, Ohio, USA).

collagen fibers [3] = molecular target: T1, collagen fibers (Rattus norvegicus, UniProt P02454+P02466); assay: In vivo binding of intravitreally injected ICG to collagen fibers (PAM/OCT/fundus imaging)
T1 construct: host or cells: exogenous fibres injected into the vitreous of New Zealand White rabbits
Text: A total of 24 New Zealand White rabbits (age 3-6 months; weight 2.45-3.15 kg; both genders) were used. The rabbits were randomly divided into 7 groups: a control group A treated with laser only (n=3), group B received an intravitreal (IVIT) injection of ICG (n=9), group C received an IVIT injection of ICG labeled collagen fibers (n=3), group D was IVIT injected with collagen fibers followed by an IVIT injection of ICG (n=3), group E was IVIT injected with HA-AuNPs labeled floaters (n=3), and group F was IVIT injected with floaters followed by an IVIT injection of HA-AuNPs (n=3). During the in vivo experiments, animal conditions such as mucous membrane color, heart rate, body heat, and respiratory rate were monitored every 15 minutes. […]
First, to visualize the retina of the rabbit eyes, a plastic contact lens was placed on the cornea. […] The position of the fibers was monitored by OCT so that the intravitreal injection of ICG could be performed close the area where the fibers were located. […]
The rabbits were monitored one minute after intravitreal injection of the collagen fibers and at day 4 post intravitreal injection of ICG. […] The rabbit eyes were assessed by color fundus photography, fluorescence imaging, optical coherence tomography (OCT) and photoacoustic microscopy (PAM), as discussed below. […]

collagen fibers [4] = molecular target: T1, collagen fibers; assay: In vivo laser photo-ablation of intravitreally injected collagen fibers
Text: as §1
First, to visualize the retina of the rabbit eyes, a plastic contact lens was placed on the cornea. When the target location in the vitreous was selected under the microscope, the rabbits under anaesthesia were subsequently intravitreally injected. The intravitreal injections were performed using a 27 gauge needle. […] The position of the fibers was monitored by OCT so that the intravitreal injection of ICG could be performed close the area where the fibers were located. […]
Before laser treatment, the rabbit's eyes were imaged by PAM and OCT (see section above). […] Also, rabbit's vital signs were monitored and recorded until the animals fully recovered from anaesthesia.

[5] = eyes treated with laser with ICG

T1 sequence (P02454 152-1207 limits assumed): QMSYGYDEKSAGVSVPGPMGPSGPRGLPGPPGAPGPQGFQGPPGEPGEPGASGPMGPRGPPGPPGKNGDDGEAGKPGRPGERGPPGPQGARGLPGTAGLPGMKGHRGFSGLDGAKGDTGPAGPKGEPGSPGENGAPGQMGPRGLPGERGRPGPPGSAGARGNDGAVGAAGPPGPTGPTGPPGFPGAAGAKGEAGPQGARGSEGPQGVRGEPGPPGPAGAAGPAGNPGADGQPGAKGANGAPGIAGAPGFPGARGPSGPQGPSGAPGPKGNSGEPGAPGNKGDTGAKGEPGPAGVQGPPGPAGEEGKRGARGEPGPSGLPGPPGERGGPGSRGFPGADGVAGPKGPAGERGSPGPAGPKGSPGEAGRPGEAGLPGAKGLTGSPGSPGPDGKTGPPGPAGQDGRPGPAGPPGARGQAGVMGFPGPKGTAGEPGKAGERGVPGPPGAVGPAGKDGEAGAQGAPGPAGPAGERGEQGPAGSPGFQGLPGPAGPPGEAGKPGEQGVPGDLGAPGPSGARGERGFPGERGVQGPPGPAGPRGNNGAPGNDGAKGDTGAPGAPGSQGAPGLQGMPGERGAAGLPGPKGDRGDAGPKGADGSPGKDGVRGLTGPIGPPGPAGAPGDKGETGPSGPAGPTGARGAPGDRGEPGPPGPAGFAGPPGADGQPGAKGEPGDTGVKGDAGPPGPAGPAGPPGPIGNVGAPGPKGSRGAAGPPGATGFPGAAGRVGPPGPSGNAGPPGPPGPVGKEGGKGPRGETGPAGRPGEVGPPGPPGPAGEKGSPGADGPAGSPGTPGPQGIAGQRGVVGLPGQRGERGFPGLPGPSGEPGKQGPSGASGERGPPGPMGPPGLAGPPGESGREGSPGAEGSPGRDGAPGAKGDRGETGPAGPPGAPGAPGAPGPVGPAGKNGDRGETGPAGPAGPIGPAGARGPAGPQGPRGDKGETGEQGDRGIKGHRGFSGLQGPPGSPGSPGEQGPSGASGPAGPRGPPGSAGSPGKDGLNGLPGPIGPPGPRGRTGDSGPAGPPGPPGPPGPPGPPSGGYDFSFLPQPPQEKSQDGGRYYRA
T1 sequence (P02466 86-1125 limits assumed): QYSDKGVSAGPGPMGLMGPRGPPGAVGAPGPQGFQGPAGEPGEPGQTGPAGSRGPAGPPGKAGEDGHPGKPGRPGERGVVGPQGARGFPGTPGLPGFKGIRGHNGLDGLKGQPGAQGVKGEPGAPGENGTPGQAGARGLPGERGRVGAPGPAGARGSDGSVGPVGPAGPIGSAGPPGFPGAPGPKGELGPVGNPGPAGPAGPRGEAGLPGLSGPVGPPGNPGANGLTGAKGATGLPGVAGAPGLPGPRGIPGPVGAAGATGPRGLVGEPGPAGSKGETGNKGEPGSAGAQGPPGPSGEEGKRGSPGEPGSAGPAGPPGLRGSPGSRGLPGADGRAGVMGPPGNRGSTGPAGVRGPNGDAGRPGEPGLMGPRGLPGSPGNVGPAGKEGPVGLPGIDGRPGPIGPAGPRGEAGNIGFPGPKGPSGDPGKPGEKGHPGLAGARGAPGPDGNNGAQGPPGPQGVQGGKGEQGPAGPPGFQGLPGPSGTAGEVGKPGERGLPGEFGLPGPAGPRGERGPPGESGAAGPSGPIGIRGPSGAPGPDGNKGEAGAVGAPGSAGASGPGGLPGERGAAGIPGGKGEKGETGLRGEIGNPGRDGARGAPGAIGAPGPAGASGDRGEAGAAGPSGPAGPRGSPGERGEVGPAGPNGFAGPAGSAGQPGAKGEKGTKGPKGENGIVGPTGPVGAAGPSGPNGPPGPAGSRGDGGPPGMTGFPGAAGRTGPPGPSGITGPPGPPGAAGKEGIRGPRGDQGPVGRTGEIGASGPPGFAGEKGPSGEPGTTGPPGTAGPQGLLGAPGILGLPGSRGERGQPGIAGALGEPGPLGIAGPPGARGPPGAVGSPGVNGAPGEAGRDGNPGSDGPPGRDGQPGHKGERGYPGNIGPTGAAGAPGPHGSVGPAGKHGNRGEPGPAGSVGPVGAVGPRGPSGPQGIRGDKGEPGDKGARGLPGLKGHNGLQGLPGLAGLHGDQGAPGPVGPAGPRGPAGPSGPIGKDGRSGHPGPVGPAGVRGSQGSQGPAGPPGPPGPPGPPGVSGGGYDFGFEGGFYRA

CC1(C)C(/C=C/C=C/C=C/C=C2\N(CCCCS(=O)(=O)O)c3ccc4ccccc4c3C2(C)C)=[N+](CCCCS(=O)(=O)[O-])c2ccc3ccccc3c21 [ICG, Indocyanine Green]
visibility of ICG 7 days after injection ([1]; 0.25 mg/ml IVIT): no longer visible at the level of the collagen fibers
visibility of ICG 7 days after injection ([1]; 0.625 mg/ml IVIT): remained only visible at the level of the collagen fibers
visibility of ICG 7 days after injection ([1]; 1.25 mg/ml IVIT): remained only visible at the level of the collagen fibers
visibility of 'free' ICG (not bound to collagen) in vitreous cavity ([1]; 3 days post injection, all concentrations): no longer visible in the vitreous cavity
visibility of injected ICG in vitreous ([1]; after one day, 0.25, 0.625 and 1.25 mg/ml IVIT): most of the injected ICG was no longer visible
anterior segment 30 days post treatment ([2]; 30 days post treatment): normal corneas, eyelids, anterior chamber, conjunctiva and transparent lenses
anterior segment, visual inspection [2, 5]: normal corneas, eyelids, anterior chamber, conjunctiva, and transparent lens
posterior segment, color fundus imaging [2, 5]: no significant changes or injuries in the posterior segment structure
retinal layers, B-scan OCT ([2]; post laser treatment): did not indicate structural disorganization in the retinal layers
reaching and binding of collagen fibers in vivo (collagen fibers [3]; IVIT 1.25 mg/mL, 5 days after fiber injection): could reach and bind the collagen fibers
lowest concentration at which binding to collagen fibers was still observed in vivo (collagen fibers [3]; intravitreal injection): 0.625 mg/mL
destruction of collagen fibers in vivo (collagen fibers [4]; IVIT 0.625 mg/mL, 800 nm, 1.9 J/cm^2): complete destruction of the collagen fibers
laser pulses (scans) sufficient to completely destroy injected collagen fibers (collagen fibers [4]; IVIT 1.25 mg/mL, 800 nm, 1.9 J/cm^2, 3 days after ICG): 5 laser pulses
pulses sufficient to destroy the IVIT injected fibers (collagen fibers [4]; all rabbits tested (n=3)): 3.3+/−1.5 pulses

From US20230256095A1, “DYES FOR USE IN A METHOD OF TREATMENT OF VITREOUS OPACITY-RELATED DISEASES” (UNIVERSITEIT GENT, priority 2020, published 2023)
